Values after ≈ are worked out from the molar mass of the structure shown.

Data set [1] can be described thus: Aqueous solubility of dasatinib (internal experimentation). Conditions: aqueous medium. Format: physicochemical. An excerpt:
Dasatinib in crystalline forms is categorized as a Biopharmaceutical Classification System (“BCS”) Class II (low solubility/high permeability) compound. […] A preparation of dasatinib in a form that is intended to enhance its solubility could increase its bioavailability. One approach for enhancing solubility is to produce an amorphous solid dispersion.

The conditions of data set [2]: crystalline forms; low solubility/high permeability; cited from earlier work.
The conditions of data set [3]: Comparative Example; promptly after spray drying and drying.
Procedure: (§1) Each of the resulting ASDs was placed on stability under accelerated conditions at 40° C./75% RH. The ASDs were assessed at t=0 (i.e., after the secondary drying step), 2 weeks, 1 month, 2 months, 3 months, and 6 months for appearance, amorphicity, glass transition temperature, water content, and assay/total impurities.
Amorphicity (i.e., the lack of crystallinity) for the ASDs was assessed by XRD. Diffraction patterns were obtained using a Rigaku MiniFlex 600. The X-ray source was a long anode Cu Kα. Samples were prepared by placing a small amount of ASD powder on a Rigaku zero-background sample holder with a 0.1 mm indent. A glass slide was then used to firmly pack the powder and ensure the surface of the sample was level with the edge of the sample holder.
Rigaku Data Analysis Software PDXL 2.4.2.0 was used to determine crystallinity. Briefly, a linear background was obtained by connecting the beginning and end of each diffractogram. Peaks were then fitted to split pseudo-Voigt shape by the Lorentzian function. Generally, narrow peaks with full width at half maximum (FWHM) less than 1° were assigned as crystalline phase. If no crystalline phase was detected, the sample was deemed to be amorphous.
The conditions of data set [4]: Comparative Example; promptly after preparation.
Procedure: as §1
In general, about 5-10 mg of ASD powder was loaded in a TA Tzero low-mass aluminum pan and sealed with a Tzero lid.

Regarding `Cc1nc(Nc2ncc(C(=O)Nc3c(C)cccc3Cl)s2)cc(N2CCN(CCO)CC2)n1` [Dasatinib, N-(2-chloro-6-methylphenyl)-2-[[6-[4-(2-hydroxyethyl)-1-piperazinyl]-2-methyl-4-pyrimidinyl]amino]-5-thiazolecarboxamide], the solubility in data set [1] (pH 2, simulated gastric fluid) is ~1400 µg/mL (≈ 2870 µM); in data set [1] (pH 6.2, aqueous buffer), < 1 µg/mL. Also, the “Biopharmaceutical Classification System (BCS) class” value in data set [2] was “Class II”.

As to `Cc1nc(Nc2ncc(C(=O)Nc3c(C)cccc3Cl)s2)cc(N2CCN(CCO)CC2)n1` [spray-dried material of 100% dasatinib], the XRD crystallinity result in data set [3] was “exhibited crystalline character”. Moreover, the “glass transition temperature (Tg)” value in data set [4] was found to be 125.61 °C.
